Assay results: BindingDB's records for doi:10.1021/jm960873x (University of California, 1997)

Assays:
[1] = Observed inhibition activity of the compounds against protein phosphatases 1 (PP1)
[2] = Observed inhibition activity against protein phosphatase 1 (PP1)
[3] = Inhibition activity against protein phosphatase 1 (PP1), activity taken from literature

| SMILES | IC50 [1] | IC50 [2] | IC50 [3] |
| --- | --- | --- | --- |
| CO[C@H]([C@H](O)CC(=O)[C@@H](C)[C@@H](O)CC[C@@H](C)[C@@H]1O[C@]2(CC[C@@H](C)[C@H](CC[C@H](C)C(C)=O)O2)CC[C@@H]1C)[C@H](OC(=O)C[C@@H](O)C1=C(C)C(=O)OC1=O)C(C)C [TAUTOMYCIN] | 0.67 nM | – | – |
| COC[C@@H]([C@H](O)[C@H](O)C(=O)N[C@H](C)C[C@H](C)c1nc(/C=C/CC2O[C@]3(CC(O)C2C)OC([C@H](C[C@H](O)[C@H](C)[C@H](O)[C@H](C)/C=C(C)/C(C)=C/C=C/C(C)=C\C#N)OC)[C@H](OP(=O)(O)O)C3(C)C)co1)N(C)C (some centres undefined) [Calyculin C] | 1.5 nM | – | – |
| C/C=C1/C(=O)N[C@@H](C(=O)O)[C@H](C)C(=O)N[C@@H](CCCNC(=N)N)C(=O)N[C@@H](/C=C/C(C)=C/[C@H](C)[C@H](Cc2ccccc2)OC)[C@H](C)C(=O)N[C@@H](C(=O)O)CCC(=O)N1C [(5R,6S,9S,12S,13S,16R)-2-Eth-(Z)-ylidene-9-(3-guanidino-propyl)-12-((1E,3E)-(5S,6S)-6-methoxy-3,5-dimethyl-7-phenyl-hepta-1,3-dienyl)-1,6,13-trimethyl-3,7,10,14,19-pentaoxo-1,4,8,11,15pentaaza-cyclononadecane-5,16-dicarboxylic acid] | – | 0.42 nM | 3 nM |
